Values of other authors in patent publication US9677978B2, “Fixative solution, for fixation and preservation of biological samples” (priority 2011, dated 2017).

Settings: in 20 months; commercial biocide solutions stabilized by antioxidants

N#CC(Br)(Br)C(N)=O [DBPNA, 2,2-Dibromo-3-nitrilopropionamide]
degradation of DBPNA: < 10%
